This passage reports IC50 results from US20240226115A1, “AXL INHIBITOR COMPOUNDS” (ARCUS BIOSCIENCES, INC., priority 2021, published 2024).

The target in one assay is T1, recombinant human MER (Homo sapiens, UniProt Q12866).
T1 construct: purchased Invitrogen
T1 sequence (Q12866 21-999): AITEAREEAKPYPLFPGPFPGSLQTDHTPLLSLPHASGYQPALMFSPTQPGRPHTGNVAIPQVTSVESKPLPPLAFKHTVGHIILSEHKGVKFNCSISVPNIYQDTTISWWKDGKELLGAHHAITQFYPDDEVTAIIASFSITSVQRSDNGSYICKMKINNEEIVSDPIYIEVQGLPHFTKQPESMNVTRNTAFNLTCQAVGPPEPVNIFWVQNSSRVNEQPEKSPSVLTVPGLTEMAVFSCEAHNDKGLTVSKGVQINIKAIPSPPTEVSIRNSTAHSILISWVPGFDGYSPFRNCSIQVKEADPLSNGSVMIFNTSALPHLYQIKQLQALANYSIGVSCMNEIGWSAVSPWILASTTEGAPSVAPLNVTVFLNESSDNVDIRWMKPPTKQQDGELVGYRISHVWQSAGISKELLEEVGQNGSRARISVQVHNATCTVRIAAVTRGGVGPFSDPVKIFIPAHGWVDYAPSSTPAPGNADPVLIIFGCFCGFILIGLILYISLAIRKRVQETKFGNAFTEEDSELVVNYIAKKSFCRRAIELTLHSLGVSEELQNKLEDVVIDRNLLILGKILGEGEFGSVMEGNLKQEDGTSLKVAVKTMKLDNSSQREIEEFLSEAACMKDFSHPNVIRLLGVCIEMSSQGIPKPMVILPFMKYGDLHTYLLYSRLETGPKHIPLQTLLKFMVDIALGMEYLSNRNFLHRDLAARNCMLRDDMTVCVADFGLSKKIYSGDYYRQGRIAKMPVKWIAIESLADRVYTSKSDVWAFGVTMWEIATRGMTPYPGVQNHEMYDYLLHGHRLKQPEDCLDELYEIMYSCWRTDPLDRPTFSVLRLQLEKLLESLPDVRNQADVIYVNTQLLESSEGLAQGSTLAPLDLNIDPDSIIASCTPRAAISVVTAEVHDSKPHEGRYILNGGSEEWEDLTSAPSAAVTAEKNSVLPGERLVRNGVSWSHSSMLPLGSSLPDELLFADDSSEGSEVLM
As to the kind of experiment: HTRF KinEASE-TK biochemical potency, MER. To be noted: 1 nM MER, 700 μM ATP. The procedure:
Purified recombinant human AXL, TYRO3 and MER proteins were purchased from Invitrogen™. 10 nM AXL, 2 nM TYRO3 or MER were incubated with varying concentrations of compounds in 50 mM HEPES, pH 7.4, 10 mM MgCl2, 0.01% BSA, 1 mM DTT and 2% DMSO in a total volume of 20 μl in a 384-well microplate (Corning™ #3640) at RT for 1 h. The AXL, TYRO3 and MER enzymatic reaction was initiated by transferring 10 μl of enzyme and compound mixture into 10 μl of 1.6 μM TK Substrate-biotin (HTRF® KinEASE-TK kit, Cisbio) and 1400 μM ATP pre-incubated in 50 mM HEPES, pH 7.4, 10 mM MgCl2, 0.01% BSA, 1 mM DTT in a 384-well microplate (Corning™ #3640) at RT, giving the final reaction conditions: 5 nM AXL, 1 nM TYRO3 or MER, 800 nM TK Substrate-biotin and 700 μM ATP in 50 mM HEPES, pH 7.4, 10 mM MgCl2, 0.01% BSA, 1 mM DTT and 1% DMSO with varying concentrations of compounds. Following 2 h incubation at RT, the AXL, TYRO3 and MER enzymatic reaction was stopped by transfer of 10 μl of reaction into 10 μl of detection mix (400 nM Streptavidin-XL665, 200-fold dilution TK Antibody-Cryptate and detection buffer, HTRF® KinEASE-TK kit, Cisbio) in a white 384-well microplate (Perkin Elmer, OptiPlate 384). After 1 h incubation at RT, the plate was put into a plate reader (Evision) to read at 665/620 nm (acceptor/donor) for HTRF. The value of the DMSO blank (MIN inhibition=100% activity) was used as a negative control. The positive control was established by adding 5 μl of enzyme and DMSO mixture into 10 μl of detection mix followed by addition of 5 μl of TK Substrate-biotin and ATP mixture (MAX inhibition=0% activity). To calculate the percent activity, Equation 1 was used. Ratio665/620 is the value at a given compound concentration: […]
Background: Time-resolved FRET reads energy transfer from a long-lived donor to a nearby acceptor.

The next assay has as its target T2, recombinant human TYRO3 (Homo sapiens, UniProt Q06418).
T2 construct: purchased Invitrogen
T2 sequence (Q06418 41-890): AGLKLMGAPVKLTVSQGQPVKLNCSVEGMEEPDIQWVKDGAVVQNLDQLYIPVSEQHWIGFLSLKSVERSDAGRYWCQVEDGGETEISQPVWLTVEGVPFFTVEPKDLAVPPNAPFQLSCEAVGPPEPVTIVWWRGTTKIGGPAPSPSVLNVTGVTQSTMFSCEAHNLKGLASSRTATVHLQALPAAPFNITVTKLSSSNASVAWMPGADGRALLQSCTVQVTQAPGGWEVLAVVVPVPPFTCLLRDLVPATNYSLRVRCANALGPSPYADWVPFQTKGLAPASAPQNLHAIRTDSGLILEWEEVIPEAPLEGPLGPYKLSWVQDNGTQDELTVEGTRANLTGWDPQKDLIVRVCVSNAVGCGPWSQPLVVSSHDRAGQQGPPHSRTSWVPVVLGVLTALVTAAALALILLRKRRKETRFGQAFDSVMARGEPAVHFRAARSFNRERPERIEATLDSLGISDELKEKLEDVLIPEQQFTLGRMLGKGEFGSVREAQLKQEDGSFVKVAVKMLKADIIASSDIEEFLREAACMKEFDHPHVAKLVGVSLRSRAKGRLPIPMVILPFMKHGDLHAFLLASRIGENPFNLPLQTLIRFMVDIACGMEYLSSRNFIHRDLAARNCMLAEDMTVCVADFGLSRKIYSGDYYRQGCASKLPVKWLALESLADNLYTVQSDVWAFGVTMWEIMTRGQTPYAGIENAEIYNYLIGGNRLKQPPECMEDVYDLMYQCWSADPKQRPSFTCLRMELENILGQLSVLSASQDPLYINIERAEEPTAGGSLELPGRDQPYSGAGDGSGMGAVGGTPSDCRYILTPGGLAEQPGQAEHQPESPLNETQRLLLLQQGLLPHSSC
Put plainly: HTRF KinEASE-TK biochemical potency, TYRO3. The following applies: 1 nM TYRO3, 700 μM ATP. The procedure, abridged: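 Enzyme preincubated with compound 1 h at RT; final 5 nM AXL or 1 nM TYRO3/MER, 800 nM TK substrate-biotin, 700 μM ATP, HEPES pH 7.4, MgCl2, 1% DMSO, 2 h at RT. HTRF 665/620 ratio read after streptavidin-XL665/cryptate antibody detection; percent activity relative to DMSO and pre-stopped controls.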

A word on the IC50: it is the concentration that gives 50% inhibition. Turning to `CC1(O)CCOc2cc(-c3n[nH]c4ncc(-c5ccc6c(c5)CC[C@@H](N5CCCC5)CC6)cc34)ccc21` (stereo partly drawn) [Example 31, 4-Methyl-7-{5-[(7S)-7-(pyrrolidin-1-yl)-6,7,8,9-tetrahydro-5H-benzo[7]annulen-2-yl]-1H-pyrazolo[3,4-b]pyridin-3-yl}-3,4-dihydro-2H-1-benzopyran-4-ol], the IC50 was 100 to 1000 nM at recombinant human MER and below 100 nM at recombinant human TYRO3.
Regarding `CC1(C)NS(=O)(=O)c2cc(-c3n[nH]c4ncc(-c5ccc6c(c5)CCC(N5CCCC5)CC6)cc34)ccc21` (stereo not drawn) [Example 32, 3,3-Dimethyl-6-{5-[7-(pyrrolidin-1-yl)-6,7,8,9-tetrahydro-5H-benzo[7]annulen-2-yl]-1H-pyrazolo[3,4-b]pyridin-3-yl}-2,3-dihydro-1λ^6,2-benzothiazole-1,1-dione], the concentration for half-maximal inhibition (IC50) at recombinant human MER and at recombinant human TYRO3 was below 100 nM in each case.
Take `C[C@@H]1CCCN1C1CCc2ccc(-c3cnc4[nH]nc(-c5ccc6c(c5)S(=O)(=O)NC6(C)C)c4c3)cc2CC1` (stereo partly drawn) [Example 33, 3,3-Dimethyl-6-(5-{7-[(2R)-2-methylpyrrolidin-1-yl]-6,7,8,9-tetrahydro-5H-benzo[7]annulen-2-yl}-1H-pyrazolo[3,4-b]pyridin-3-yl)-2,3-dihydro-1λ^6,2-benzothiazole-1,1-dione]: the IC50 on recombinant human MER and at recombinant human TYRO3 was below 100 nM in each case.
Take `CC1(C)NS(=O)(=O)c2cc(-c3n[nH]c4ncc(-c5ccc6c(c5)CCC(N5CCC[C@@H]5CO)CC6)cc34)ccc21` (stereo partly drawn) [Example 34, 6-(5-{7-[(2R)-2-(Hydroxymethyl)pyrrolidin-1-yl]-6,7,8,9-tetrahydro-5H-benzo[7]annulen-2-yl}-1H-pyrazolo[3,4-b]pyridin-3-yl)-3,3-dimethyl-2,3-dihydro-1λ^6,2-benzothiazole-1,1-dione]: the IC50 on recombinant human MER and on recombinant human TYRO3 was below 100 nM each time.
For the molecule `CC1(C)COc2cc(-c3n[nH]c4ncc(-c5ccc6c(c5)CCC(N5CCCC5)CC6)cc34)ccc2C(=O)N1` (stereo not drawn) [Example 35, 3,3-Dimethyl-8-{5-[7-(pyrrolidin-1-yl)-6,7,8,9-tetrahydro-5H-benzo[7]annulen-2-yl]-1H-pyrazolo[3,4-b]pyridin-3-yl}-2,3,4,5-tetrahydro-1,4-benzoxazepin-5-one], the IC50 at recombinant human MER and at recombinant human TYRO3 was below 100 nM each time.
For the molecule `C[C@@H]1CCCN1C1CCc2ccc(-c3cnc4[nH]nc(-c5ccc6c(c5)OCC5(CC5)NC6=O)c4c3)cc2CC1` (stereo partly drawn) [Example 36, 8-(5-{7-[(2R)-2-Methylpyrrolidin-1-yl]-6,7,8,9-tetrahydro-5H-benzo[7]annulen-2-yl}-1H-pyrazolo[3,4-b]pyridin-3-yl)-4,5-dihydro-2H-spiro[1,4-benzoxazepine-3,1′-cyclopropan]-5-one], the IC50 on recombinant human MER and at recombinant human TYRO3 was below 100 nM each time.
Turning to `C[C@@H]1CCCN1C1CCc2ccc(-c3cnc4[nH]nc(-c5ccc6c(c5)OCC5(CCC5)NC6=O)c4c3)cc2CC1` (stereo partly drawn) [Example 37, 8-(5-{7-[(2R)-2-Methylpyrrolidin-1-yl]-6,7,8,9-tetrahydro-5H-benzo[7]annulen-2-yl}-1H-pyrazolo[3,4-b]pyridin-3-yl)-4,5-dihydro-2H-spiro[1,4-benzoxazepine-3,1′-cyclobutan]-5-one], the IC50 at recombinant human MER and at recombinant human TYRO3 was below 100 nM each time.
For `C[C@@H]1CCCN1C1CCc2ccc(-c3cnc4[nH]nc(-c5ccc6c(c5)C(=O)NC6(C)C)c4c3)cc2CC1` (stereo partly drawn) [Example 38, 3,3-Dimethyl-6-(5-{7-[(2R)-2-methylpyrrolidin-1-yl]-6,7,8,9-tetrahydro-5H-benzo[7]annulen-2-yl}-1H-pyrazolo[3,4-b]pyridin-3-yl)-2,3-dihydro-1H-isoindol-1-one], the results for the IC50 at recombinant human MER and on recombinant human TYRO3 were 100 to 1000 nM and below 100 nM, respectively.
As to `C[C@H]1CCCN1C1Cc2ccc(-c3cnc4[nH]nc(-c5ccc6c(c5)OCC(C)(C)NC6=O)c4c3)cc2C1` (stereo partly drawn) [Example 39, 3,3-Dimethyl-8-(5-{2-[(2S)-2-methylpyrrolidin-1-yl]-2,3-dihydro-1H-inden-5-yl}-1H-pyrazolo[3,4-b]pyridin-3-yl)-2,3,4,5-tetrahydro-1,4-benzoxazepin-5-one], the figures for the IC50 on recombinant human MER and at recombinant human TYRO3 were 100 to 1000 nM and below 100 nM, respectively.
On to `Cc1cc2c(cc1-c1n[nH]c3ncc(-c4ccc5c(c4)CCC(N4CCC[C@H]4C)CC5)cc13)OCCNC2=O` (stereo partly drawn) [Example 40, 7-Methyl-8-(5-{7-[(2R)-2-methylpyrrolidin-1-yl]-6,7,8,9-tetrahydro-5H-benzo[7]annulen-2-yl}-1H-pyrazolo[3,4-b]pyridin-3-yl)-2,3,4,5-tetrahydro-1,4-benzoxazepin-5-one], for which the IC50 was 100 to 1000 nM at recombinant human MER and below 100 nM on recombinant human TYRO3.
As to `Cc1c(-c2n[nH]c3ncc(-c4ccc5c(c4)CCC(N4CCC[C@H]4C)CC5)cc23)ccc2c1OCCNC2=O` (stereo partly drawn) [Example 41, 9-Methyl-8-(5-{7-[(2R)-2-methylpyrrolidin-1-yl]-6,7,8,9-tetrahydro-5H-benzo[7]annulen-2-yl}-1H-pyrazolo[3,4-b]pyridin-3-yl)-2,3,4,5-tetrahydro-1,4-benzoxazepin-5-one], the IC50 on recombinant human MER was 100 to 1000 nM; on recombinant human TYRO3, below 100 nM.
On to `O=C1NCCOc2cc(-c3n[nH]c4ncc(-c5ccc6c(c5)CCC(NC5CCCC5)CC6)cc34)ccc21` (stereo not drawn) [Example 42, 8-{5-[7-(Cyclopentylamino)-6,7,8,9-tetrahydro-5H-benzo[7]annulen-2-yl]-1H-pyrazolo[3,4-b]pyridin-3-yl}-2,3,4,5-tetrahydro-1,4-benzoxazepin-5-one], for which the IC50 on recombinant human MER and at recombinant human TYRO3 was below 100 nM throughout.
